One may read the IC50 as the concentration at which inhibition is half-maximal.

Each structure is given as a SMILES string. Activity calls are given as the source filed them. No rule for the calls is given here.

The target in this assay is Ubiquitin carboxyl-terminal hydrolase 8 (Homo sapiens) (UniProt P40818). The assay is described as follows: Ubiquitin-specific protease 8 inhibitors, concentration-effect, biochemical, validation of initial actives (AID 1645862).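 Also: potency reflects inhibition of USP8 cleavage of a ubiquitin rhodamine substrate.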 Particulars: recombinant USP8 deubiquitinase activity assay.
Chain of Ubiquitin carboxyl-terminal hydrolase 8 (Homo sapiens) (P40818 whole entry, looked up): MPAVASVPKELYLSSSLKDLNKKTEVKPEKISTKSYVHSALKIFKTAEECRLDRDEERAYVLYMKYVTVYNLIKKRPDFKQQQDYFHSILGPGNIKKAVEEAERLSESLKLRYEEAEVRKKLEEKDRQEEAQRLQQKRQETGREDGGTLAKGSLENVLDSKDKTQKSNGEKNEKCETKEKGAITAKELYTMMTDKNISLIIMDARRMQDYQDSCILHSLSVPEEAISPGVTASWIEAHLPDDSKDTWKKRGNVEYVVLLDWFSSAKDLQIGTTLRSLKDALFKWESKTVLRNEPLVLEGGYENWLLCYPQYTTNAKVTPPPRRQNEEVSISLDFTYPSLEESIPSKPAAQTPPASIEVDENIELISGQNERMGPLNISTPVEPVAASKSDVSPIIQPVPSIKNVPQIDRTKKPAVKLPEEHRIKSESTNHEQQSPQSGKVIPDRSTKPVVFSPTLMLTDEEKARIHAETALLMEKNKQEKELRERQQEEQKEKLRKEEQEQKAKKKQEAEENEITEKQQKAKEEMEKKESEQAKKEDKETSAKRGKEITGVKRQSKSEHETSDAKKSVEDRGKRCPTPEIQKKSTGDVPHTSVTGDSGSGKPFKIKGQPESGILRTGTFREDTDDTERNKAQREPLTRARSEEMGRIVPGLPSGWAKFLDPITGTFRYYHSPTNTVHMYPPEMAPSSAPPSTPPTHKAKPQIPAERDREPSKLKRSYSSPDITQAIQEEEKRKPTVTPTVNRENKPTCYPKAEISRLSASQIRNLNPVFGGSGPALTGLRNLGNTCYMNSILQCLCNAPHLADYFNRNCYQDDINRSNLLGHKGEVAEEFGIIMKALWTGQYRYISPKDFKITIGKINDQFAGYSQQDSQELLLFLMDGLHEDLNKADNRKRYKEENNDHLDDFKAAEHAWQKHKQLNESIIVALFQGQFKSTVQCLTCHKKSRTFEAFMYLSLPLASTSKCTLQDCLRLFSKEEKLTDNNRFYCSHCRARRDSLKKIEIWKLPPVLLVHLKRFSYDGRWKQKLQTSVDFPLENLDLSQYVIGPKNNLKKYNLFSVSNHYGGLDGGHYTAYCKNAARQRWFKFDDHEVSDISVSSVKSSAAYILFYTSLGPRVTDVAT
Turning to `COc1ccc(NC(=O)Cn2cc(C(=O)c3ccc(F)cc3)c(=O)c3cc(C)ccc32)cc1`, the IC50 is > 40 µM (inactive). The figure for `O=C(Nc1ccncc1)c1cn(Cc2ccccc2)cc2c(=O)n(-c3ccccc3)nc1-2` is > 40 µM (inactive). The figure for `COc1ccc(-c2nc(NCCCN3CCOCC3)c3ccccc3n2)cc1` is > 40 µM (inactive); for `CCOc1ccccc1NC(=O)Cn1c(=O)n(CCC(=O)NCCc2ccc(OC)c(OC)c2)c(=O)c2ccccc21` it is > 40 µM (inactive); for `CCCCCCCCCc1cc(OC(=O)c2c(CCCCCCCCC)cc(O)cc2O[C@@H]2O[C@H](CO)[C@@H](O)[C@H](O)[C@H]2O)cc(O)c1C(=O)O` it is 6.23 µM. The figure for `COc1ccc(C(NC(=O)c2nc3n(n2)-c2ccccc2S(=O)(=O)N3)C(C)C)cc1` (stereo unspecified) is > 40 µM (inactive). In the case of `O=C(c1ccc2occc2c1)N1CCC(S(=O)(=O)c2ccc(-c3ccco3)cc2)CC1`, the IC50 was > 40 µM (inactive). The figure for `Cc1cccc(C(=O)Nc2cccc(SC(C(=O)Nc3ccc(Cl)c(C(=O)O)c3)c3ccccc3)c2)c1` (stereo unspecified) is 23.4 µM.

On to `CC(C)CCCCCCCCCCC(=O)N(C)[C@H](CO)C(=O)N[C@H](C)C(=O)NCC(=O)N(C)C1C(=O)N[C@@H](C)C(=O)NC(C(=O)O)Cc2ccc(O)c(c2)-c2cc1ccc2O` (stereo partly specified), for which the IC50 was > 40 µM (inactive). Next, `CCNS(=O)(=O)c1ccc(-c2ccc(-n3cnnn3)cc2)cc1`: > 40 µM (inactive).

Regarding `O=C(Cn1ncc2c(=O)oc3ccccc3c21)NCc1ccc2c(c1)OCO2`, the IC50 is > 40 µM (inactive).

As for `COc1ccc(CNC(=O)c2ccc3c(=O)nc4c(-c5cccc(C)c5)n[nH]n4c3c2)cc1`, the IC50 was > 40 µM (inactive). On to `CC(C)=CCc1c2c(c3occ(-c4ccc(O)c(O)c4)c(=O)c3c1O)C=CC(C)(C)O2`, for which the IC50 is 16 µM. Next, `FC(F)(F)c1cccc(Nc2nc(-c3ccccn3)nc3ccccc23)c1`: > 40 µM (inactive); `O=C(Cn1c(=O)n(-c2ccccc2)c(=O)c2ccc(C(=O)NCc3ccc4c(c3)OCO4)cc21)NCCC1=CCCCC1`: > 40 µM (inactive).

For `CCOC(=O)N1CCC(NC(=O)c2cc(C(=O)Nc3ccc(S(=O)(=O)N4CCCCC4)cc3)ccc2CO)CC1`, the IC50 is > 40 µM (inactive). The figure for `CNC(=O)c1c2n(c3ncccc13)CCN(S(=O)(=O)c1ccc(-c3ccccc3)cc1)C2` is > 40 µM (inactive).

For the compound `Cc1cc(Nc2ccc(C(=O)NCc3ccco3)cc2)n2nc(-c3cccnc3)nc2n1`, the IC50 was > 40 µM (inactive). Next, `O=C(CN1C(=O)c2cccc3cccc1c23)NCCSCc1ccc(Cl)c(Cl)c1`: > 40 µM (inactive); `O=c1[nH]cccc1NS(=O)(=O)c1ccc(F)cc1`: > 40 µM (inactive). The figure for `COc1ccc(C(=O)Nc2ccccc2C(=O)NC(Cc2ccc(O)cc2)C(=O)NNC(=O)Cc2ccc(OC)c(OC)c2)cc1` (stereo unspecified) is > 40 µM (inactive). The figure for `Cc1nc(-c2ccccc2)sc1-c1nc(-c2ccccc2)ncc1S(=O)(=O)c1ccccc1` is > 40 µM (inactive); for `Oc1cccc2c(-c3ccc(O)c4c(O)cccc34)ccc(O)c12` it is > 40 µM (inactive). Consider `CCC(=O)Nc1nc2cc(NC(=O)Nc3ccc(C)cc3)ccc2s1`, for which the IC50 was > 40 µM (inactive). As for `COc1ccc2c(c1)CCc1c-2nc2ccccc2c1N1CCOCC1`, the IC50 is > 40 µM (inactive). The figure for `O=C(CCc1ccc(S(=O)(=O)N2CCOCC2)cc1)OCC(=O)c1ccc(-c2ccccc2)cc1` is > 40 µM (inactive); for `CC1OC2CC(O)C1(O)C1=C2C(O)=C(C(N)=O)C(=N)C1=O` (stereo unspecified) it is 1.56 µM.

Consider `O=C(Cc1ccc(-n2c(=O)c3ccccc3n(Cc3cccc(F)c3)c2=O)cc1)NC1CCCC1`, for which the IC50 is > 40 µM (inactive). With `COc1ccc(CNC(=O)CN2C(=O)CC(c3ccccc3)=Nc3ccccc32)cc1`, the IC50 was > 40 µM (inactive).

Turning to `CC1=C(C)C(c2c(-c3ccc(C)cc3)[nH]c3ccccc23)N(C(C)(C)C)C1=O` (stereo unspecified), the IC50 is > 40 µM (inactive). Regarding `Cc1ccccc1NC(=O)Cc1csc2nc(-c3ccc(F)cc3)cn12`, the IC50 is > 40 µM (inactive). Next, `COc1cc(OC)cc(N2C(=O)N(CC(=O)c3ccc(Br)cc3)c3ccccc3S2(=O)=O)c1`: > 40 µM (inactive); `CSc1cccc(NC(=O)c2cc(-c3cccnc3)n[nH]2)c1`: > 40 µM (inactive); `COc1ccccc1NC(=O)C1=C(C)Nc2nc(SCc3ccccc3F)nn2C1c1ccccn1` (stereo unspecified): > 40 µM (inactive). Next, `COc1ccc(C)cc1NC(=O)CN1C(=O)C2CCCC2=Nc2ccccc21` (stereo unspecified): > 40 µM (inactive); `O=c1cc(-c2ccc(O)c(O)c2)oc2cc(O[C@@H]3O[C@H](CO)[C@@H](O)[C@H](O)[C@H]3O)cc(O)c12`: 2.01 µM. Regarding `Cc1cc(C(F)(F)F)n2nc(C3CCN(C(=O)c4cnn(C)c4C)C3)cc2n1` (stereo unspecified), the IC50 was 23.8 µM. The figure for `Cc1ccc(NC(=O)Cn2cncc(-c3nc(-c4ccccc4)cs3)c2=O)cc1F` is > 40 µM (inactive); for `O=C(NCc1ccccc1Cl)C1CCN(c2ccc(-c3ccccc3)nn2)CC1` it is > 40 µM (inactive). The figure for `COc1ccc(-c2cc(-c3ccc(F)cc3)[nH]c(=O)c2C#N)cc1` is > 40 µM (inactive); for `O=C(/C=C/C=C/C=C/C1CCCCC1)NC1=C[C@@](O)(/C=C/C=C/C=C/C(=O)NC2=C(O)CCC2=O)[C@@H]2O[C@@H]2C1=O` it is > 40 µM (inactive); for `O=C(CCCCCn1c(=O)c2sccc2n(CC(=O)c2ccc(F)cc2)c1=O)NCc1ccccc1Cl` it is > 40 µM (inactive). Next, `CSc1cccc(NC(=O)C2C3C=CC4(O3)C2C(=O)N(CCc2ccccc2)C4C(=O)NC2CCCCC2)c1` (stereo unspecified): > 40 µM (inactive); `COc1ccc(NS(=O)(=O)c2cc(NC(=O)/C=C/c3ccco3)ccc2N2CCCC2)cc1`: > 40 µM (inactive).

Turning to `Cc1c(NC(=O)/C=C/c2cccc(Cl)c2Cl)cccc1-n1cnnn1`, the IC50 is > 40 µM (inactive). Next, `CNc1ccc(-c2noc([C@@H]3CCCN3Cc3cccc(C#N)c3)n2)cn1`: > 40 µM (inactive). Next, `O=c1c2cc(Br)ccc2[nH]c(=S)n1Cc1cccnc1`: > 40 µM (inactive); `O=C(NC1CCCC1)c1ccc(Cn2c(=O)c3ccccc3n(Cc3cc(=O)n4ccccc4n3)c2=O)cc1`: > 40 µM (inactive). Consider `CCN(Cc1ccccc1)C(=O)Cn1ccc2ccn(C)c2c1=O`, for which the IC50 is > 40 µM (inactive). Next, `Cc1ccc(S(=O)(=O)Nc2ccccc2C(=O)Nc2nc3ccc(Br)cc3s2)cc1`: 18.9 µM; `O=C(Nc1ccc(C(F)(F)F)cc1)C1CC(=O)N(c2ccc3c(c2)OCCO3)C1` (stereo unspecified): > 40 µM (inactive); `CCc1nc(SCC(=O)Nc2ccc(Cl)c(Cl)c2)c2oc3ccccc3c2n1`: > 40 µM (inactive). Next, `Cn1c(=O)c2ncnnc2n(C)c1=O`: 0.717 µM; `CCn1c(SCC(=O)Nc2ccc(C)c(Cl)c2)nnc1-c1ccc2c(c1)OCCO2`: > 40 µM (inactive). Next, `CCc1ccc(NC(=O)c2cc(C(F)(F)F)n(C)n2)cc1`: > 40 µM (inactive); `COc1ccccc1NC(=O)CSC1=NC2(CCCCC2)Nc2ccccc21`: > 40 µM (inactive).

Source of the values: PubChem BioAssay AID1645862 (Buhrlage Lab, Dana-Farber Cancer Institute and Novartis …, 2021).
